US8816101B2, “Paraconic acids as pigmentation activators” (Centre National de la Recherche Scientifique—CNRS, priority 2010, dated 2014)

Test system: B16 murine cells
Experiment: Melanin content of B16 murine cells by spectrophotometry (pigmenting activity in vitro)
Format: cell-based
Settings: B16 cells treated 72 h
Method: Protocol: The melanin content of B16 murine cells is determined by spectrophotometry.
The cells are seeded in 10-cm Petri dishes at a density of 1×10^6 per dish and are treated every 24 hours for 72 hours with the specified dose of purified lichenic substance, dissolved in DMSO. […] After treatment, the cells are washed twice with PBS and recovered by treatment with trypsin. The number of cells recovered is estimated by counting using a haemocytometer. One fraction is used for determining the melanin content and a second fraction for the concentration of protein. The melanin content is determined from the absorbance at 405 nm (VersaMax Microplate Reader, Molecular Devices, USA) of the cellular solution after solubilization of the melanin with 1M sodium hydroxide, for 15 min at 80° C. The protein concentration is determined according to the protocol of the “DC Protein Assay” kit developed by Bio-Rad Laboratories, USA. For each sample treated, the melanin content is referred to the amount of protein and expressed as percentage relative to the control situation (DMSO solution only). Each measurement is performed in triplicate and each experiment is carried out independently for a minimum of 3 times.
The molecules tested, with their concentrations expressed in μM, are shown on the abscissa.
On the ordinate, the melanin content is expressed as percentage relative to the control (DMSO alone=concentration of 0.1%).

CCCCCCCCCCCCC[C@H]1OC(=O)C(C)=C1C(=O)O [lichesterinic acid, (+)-Lichesterinic acid]
pro-pigmenting effect (% of pigmentation) (5 μM, relative to DMSO control): 26%

C=C1C(=O)O[C@H](CCCCCCCCCCCCC)[C@H]1C(=O)O [protolichesterinic acid, (+)-Protolichesterinic acid]
pigmentation relative to the control (melanin content) (0.5 μM, control DMSO 0.1%): 72% | depigmentation (0.5 μM, relative to DMSO control): 28%
